Laboratory results as given in paper PMC6472029, “Steroids from the Deep-Sea-Derived Fungus Penicillium granulatum MCCC 3A00475 Induced Apoptosis via Retinoid X Receptor (RXR)-α Pathway” (Marine Drugs, 2019).

Target: T1, RXRα (Homo sapiens, UniProt P19793)
T1 construct: gene RXRA; RXRα-LBD (N-terminal His-tagged)
T1 sequence (P19793 223-462 limits assumed): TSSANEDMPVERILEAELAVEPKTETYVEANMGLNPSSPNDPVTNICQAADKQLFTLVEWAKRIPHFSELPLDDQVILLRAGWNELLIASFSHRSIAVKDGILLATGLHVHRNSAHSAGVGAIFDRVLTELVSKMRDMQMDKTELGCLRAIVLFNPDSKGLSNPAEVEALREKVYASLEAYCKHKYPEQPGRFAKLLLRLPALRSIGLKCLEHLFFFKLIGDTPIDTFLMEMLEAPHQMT
Assay: fluorescence quenching with purified RXRα-LBD
Assay type: binding

Structure (SMILES)	Kd
CC(=O)O[C@H]1C[C@H]2[C@H]3[C@H]([C@@H](O)C[C@]2(C)[C@H]1[C@H](C)C=C[C@H](C)C(C)C)[C@@]1(C)CC[C@H](O)CC1=C[C@@H]3O [compound 2, 16β-acetoxy-3β,7β,11β-trihydroxyergost-5,22-diene]	13.8 µM
CC(=O)O[C@H]1C[C@H]2[C@@H]3[C@@H](O)[C@@H](O)[C@H]4C[C@@H](O)CC[C@]4(C)[C@H]3[C@@H](O)C[C@]2(C)[C@H]1[C@H](C)/C=C/[C@H](C)C(C)C [compound 6, penicisteroid A]	12.9 µM
